Test [1] has as its target T1, human ERK-2 (Mitogen Activated Kinase 1) (Homo sapiens, UniProt P28482).
T1 construct: N-terminal 6-His fusion protein in E. coli and corresponding to aa 8-360; 6-His (N); made in house; host or cells: E. coli
Put plainly: ERK-2 Enzymatic Assay. The class given is biochemical. Particulars: TABLE I; 5nM ERK-2 enzyme, 25µM ATP, S/T17 peptide substrate; single assay or mean of multiple assays. The gist of the method: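 Recombinant N-terminal 6-His human ERK-2 (aa 8-360, E. coli) was tested with fluorescent Omnia S/T17 peptide at ambient temperature. Fluorescence (ex 340/em 495 nm) was read every 50 s for ~30 min.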

The subject of another test is HCT116 cells. Put plainly: Cell Proliferation/Viability Assay (Cell Titer-Blue). The class given is cell-based. Particulars: Homo sapiens, HCT-116, 3-day (72-hour) incubation, single assay or mean of multiple assays. On the procedure:
Cell Proliferation/Viability Assay
Viable cells after a 3-day (72-hour) incubation with ERK compounds were quantified using the Cell Titer-Blue Cell Viability Assay from Promega.
Materials and Methods: HCT116 cells were plated in 96 well micro-plates at a density of 1,000 cells/well. The cells were allowed to attach to micro-plate overnight at 37 °C/5% CO2. After overnight attachment, diluted compounds were then added to the cells at a final concentration of 0.5% DMSO. After 3 days (72 hours) at 37 °C/5% CO2, the number of viable cells was determined using the Cell Titer-Blue Cell Viability Assay from Promega. Briefly, Cell Titer-Blue reagent were added to the cells and incubated for 1 hour. Fluorescence (560nmexcitation/590nmemission) was then read using a fluorescence micro-plate reader. Background from high concentration Erk-inhibited wells was subtracted. Representative data is in TABLE III (infra). The reported IC50 may be from a single assay or the mean of multiple assays.

Test [2] concerns PMA-stimulated P90RSK(Ser380) phosphorylation. Kind of test: Cellular P90RSK(Ser380) Phosphorylation Assay. The class given is cell-based. To be noted: Homo sapiens; HepG2 cells, 1.5 h compound incubation, PMA 100ng/mL 30 min, normalized to GAPDH signal; single assay or mean of multiple assays. Here is the method:
Cellular P90RSK(Ser380) Phosphorylation Assay
Inhibition of PMA-stimulated P90RSK(Ser380) phosphorylation was determined by the following in vitro cellular mechanistic assay, which comprises incubating cells with a compound for 1.5 h and quantifying fluorescent pP90RSK(Ser380) signal on fixed cells and normalizing to GAPDH signal.
Materials and Methods: HepG2 cells were obtained from ATCC and grown in DMEM supplemented with 10% fetal bovine serum. Cells were plated in 96-well plates at 35,000 cells/well and allowed to attach overnight at 37 °C/5% CO2. Diluted compounds were then added at a final concentration of 0.5% DMSO. After 1.5 h compound incubation, cells were stimulated with the addition of PMA (phorbol 12-myristate 13-acetate) at a final concentration of 100ng/mL; the PMA stimulation was a 30-min incubation at 37 °C/5% CO2. After the 30-minute PMA stimulation, cells were washed with PBS and fixed in 3.7% formaldehyde in PBS at room temperature for 15-20 min. This was followed by another wash in PBS and then permeabilization in 100% MeOH at room temperature for 10-15 min. Following the permeabilization incubation, cells were washed in PBS/0.05% Tween-20, followed by a block in Odyssey blocking buffer (LI-COR Biosciences) for at least 1 hour. Antibodies to phosphorylated P90RSK(Ser380) (Cell Signaling #9335, rabbit monoclonal) and GAPDH (Fitzgerald 10R-G109a, mouse monoclonal) were added to the cells and incubated overnight at 4 °C. pP90RSK(Ser380) antibody was used at a 1:250 dilution; GAPDH was used at a 1:10,000 dilution. After washing with PBS/0.05% Tween-20, the cells were incubated with fluorescently-labeled secondary antibodies (Anti-rabbit-Alexa Flour680, Invitrogen Cat#A21109; Anti-mouse-IRDye800CW, Rockland Inc. Cat#610-131-121) for 1 h. Both secondary antibodies were used at a 1:1000 dilution. Cells were then washed and analyzed for fluorescence at both wavelengths using the Odyssey Infrared Imaging System (LI-COR Biosciences). Phosphorylated P90RSK(Ser380) signal was normalized to GAPDH signal. Representative data is in TABLE III (infra). The reported IC50 may be from a single assay or the mean of multiple assays.

T1 sequence (P28482 8-360): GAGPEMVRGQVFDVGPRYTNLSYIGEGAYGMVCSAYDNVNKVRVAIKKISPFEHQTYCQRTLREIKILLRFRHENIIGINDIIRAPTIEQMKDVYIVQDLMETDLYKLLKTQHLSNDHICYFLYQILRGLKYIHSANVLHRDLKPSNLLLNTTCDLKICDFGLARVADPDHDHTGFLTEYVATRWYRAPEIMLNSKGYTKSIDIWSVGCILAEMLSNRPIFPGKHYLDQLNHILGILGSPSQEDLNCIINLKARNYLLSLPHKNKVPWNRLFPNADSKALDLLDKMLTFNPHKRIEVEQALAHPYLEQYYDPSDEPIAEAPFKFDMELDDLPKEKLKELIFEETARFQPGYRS

The IC50 is the concentration that gives 50% inhibition. On to `CC(C)Nc1ncc2ccc(C(=O)N[C@H](c3ccc(C(F)(F)F)c(F)c3)[C@@H]3CCCN3)cc2n1` (stereo in doubt) [Compound I-5, 2-isopropylamino-quinazoline-7-carboxylic acid [(S)-(3-fluoro-4-trifluoromethyl-phenyl)-(R)-pyrrolidin-2-yl-methyl]-amide], for which the IC50 in test [1] came to 2.3 nM; in the test with HCT116 cells it was 298 nM; in test [2] it was 11.7 nM.

In the case of `C[C@@H](CO)Nc1ncc2ccc(C(=O)N[C@H](c3ccc(Cl)c(F)c3)c3cnn(C)c3)cc2n1` (stereo in doubt) [Compound I-14, 2-((S)-2-hydroxy-1-methyl-ethylamino)-quinazoline-7-carboxylic acid [(R)-(4-chloro-3-fluoro-phenyl)-(1-methyl-1H-pyrazol-4-yl)-methyl]-amide], the IC50 with HCT116 cells is 875 nM; in test [2] it was 59.8 nM.

On to `C[C@@H](CO)Nc1ncc2ccc(C(=O)NC(c3ccc(Cl)c(F)c3)c3cnn(C)c3)cc2n1` (stereo partly drawn) [Compound I-1, N-((4-chloro-3-fluorophenyl)(1-methyl-1H-pyrazol-4-yl)methyl)-2-((S)-1-hydroxypropan-2-ylamino)quinazoline-7-carboxamide], for which the IC50 amounted to 2400 nM in the test on HCT116 cells and 75.5 nM in test [2].

With `Cn1cc(C(NC(=O)c2ccc3cnc(NC4CCOCC4)nc3c2)c2ccc(Cl)c(F)c2)cn1` (stereo not drawn) [Compound I-2, 2-(Tetrahydro-pyran-4-ylamino)-quinazoline-7-carboxylic acid [(4-chloro-3-fluoro-phenyl)-(1-methyl-1H-pyrazol-4-yl)-methyl]-amide], the half-maximal inhibitory concentration (IC50) came out at 851 nM in the test with HCT116 cells and 22.7 nM in test [2].

On to `O=C(N[C@@H](c1ccc(C(F)(F)F)c(F)c1)[C@@H]1CCCN1)c1ccc2cnc(NC3CCOCC3)nc2c1` [Compound I-3, 2-(Tetrahydropyran-4-ylamino)-quinazoline-7-carboxylic acid [(S)-(3-fluoro-4-tnfluoromethyl-phenyl)-(S)-pyrrolidin-2-yl-methyl]-amide], for which the IC50 in test [1] came out at 2.1 nM; with HCT116 cells, 272 nM; in test [2], 46 nM.

In the case of `Cn1ccc([C@@H](NC(=O)c2cc(F)c3cnc(NC4CCOCC4)nc3c2)c2ccc(Cl)c(F)c2)n1` [Compound I-22, (S)-N-((4-chloro-3-fluorophenyl)(1-methyl-1H-pyrazol-3-yl)methyl)-5-fluoro-2-(tetrahydro-2H-pyran-4-ylamino)quinazoline-7-carboxamide], the IC50 in test [1] was determined as 1.4 nM; in the test on HCT116 cells, 274 nM; in test [2] it was 23.5 nM.

Turning to `Cn1cc([C@@H](NC(=O)c2ccc3cnc(N[C@H]4CCOC[C@H]4F)nc3c2)c2ccc(Cl)c(F)c2)cn1` [Compound I-28, 2-((3S,4S)-3-fluoro-tetrahydropyran-4-ylamino)-quinazoline-7-carboxylic acid [(S)-(4-chloro-3-fluoro-phenyl)-(1-methyl-1H-pyrazol-4-yl)-methyl]-amide], the IC50 is 2.5 nM in test [1], 2100 nM in the test with HCT116 cells and 87.4 nM in test [2].

As to `O=C(NC(c1ccc(Cl)c(F)c1)c1ncno1)c1ccc2cnc(NC3CCOCC3)nc2c1` (stereo not drawn) [Compound I-34, 2-(tetrahydro-pyran-4-ylamino)-quinazoline-7-carboxylic acid [(4-chloro-3-fluoro-phenyl)-[1,2,4]oxadiazol-5-yl-methyl]-amide], the IC50 in test [1] turned out to be 3.6 nM; in the test on HCT116 cells it was 5000 nM; in test [2], 79.1 nM.

As for `C[C@@H]1CC[C@H]([C@@H](NC(=O)c2ccc3cnc(NC4CCOCC4)nc3c2)c2ccc(Cl)c(F)c2)N1` [Compound I-35, 2-(tetrahydropyran-4-ylamino)-quinazoline-7-carboxylic acid [(S)-(4-chloro-3-fluoro-phenyl)-((2R,5R)-S-methyl-pyrrolidin-2-yl)-methyl]-amide], the IC50 in test [1] was found to be 2 nM; in the test with HCT116 cells it was 44 nM; in test [2], 5.3 nM.

With `O=C(N[C@@H](c1ccc(F)c(Cl)c1)[C@@]1(F)CCNC1)c1ccc2cnc(NC3CCOCC3)nc2c1` [Compound I-39], the IC50 in test [1] came to 1.2 nM; with HCT116 cells, 10 nM; in test [2], 17.4 nM.

The values are drawn from patent publication EP2739618B1, “QUINAZOLINE COMPOUNDS AS SERINE/THREONINE KINASE INHIBITORS” (Array Biopharma, Inc., priority 2011, dated 2013).
